Data published in US20260317312A1, “ISOXAZOLIDINES AS RIPK1 INHIBITORS AND USE THEREOF” (GENZYME CORPORATION, priority 2023, published 2026).

Columns and labels:
[1] = molecular target: T1, hRIPK1 (aa 1-375) fusion protein (Homo sapiens, UniProt Q13546); assay: Receptor-Interacting Protein Kinase 1 inhibition, ADP Glo assay (conversion of ATP to ADP due to autophosphorylation); assay type: biochemical; conditions: ATP 50 μM, 30 min preincubation, 240 min incubation, room temperature, DMSO 1%
T1 construct: hRIPK1 (aa 1-375) fusion protein
T1 sequence (Q13546 1-375): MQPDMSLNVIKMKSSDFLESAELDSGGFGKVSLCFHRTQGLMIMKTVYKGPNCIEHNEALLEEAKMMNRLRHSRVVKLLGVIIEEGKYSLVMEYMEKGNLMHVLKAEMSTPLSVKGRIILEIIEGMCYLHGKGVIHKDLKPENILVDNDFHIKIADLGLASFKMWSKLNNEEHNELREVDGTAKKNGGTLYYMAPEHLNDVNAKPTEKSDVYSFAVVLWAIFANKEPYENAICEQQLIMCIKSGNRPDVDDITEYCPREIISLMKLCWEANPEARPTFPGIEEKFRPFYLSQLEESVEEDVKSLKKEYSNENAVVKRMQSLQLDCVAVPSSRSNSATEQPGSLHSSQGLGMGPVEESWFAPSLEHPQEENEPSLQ
Description: The catalytic activity of RIPK1 was measured by monitoring the conversion of Adenosine triphosphate (ATP) to Adenosine diphosphate (ADP) due to autophosphorylation using an ADP-Glo kinase kit (Promega, catalog no. V9104).
In detail, 2 μl recombinantly produced hRIPK1 (aa 1-375) fusion protein (end concentration 3.6 μg/ml) and 2 μl compound (end concentration 33300-1.69 nM; DMSO end concentration 1%) were incubated for 30 minutes at room temperature and then 2 μl ATP (ADP Glo kit, end concentration 50 μM) were added. After another 240 minutes incubation at room temperature, 5 μl Promega ADP-Glo reagent I was added to quench the reaction and deplete unconsumed ATP. After an incubation period of 30 minutes, 10 μl Promega ADP-Glo detection reagent II was added resulting in conversion of ADP to ATP, which generates a light-reaction between luciferase and luciferin. Luminescence was quantified after 30 minutes with a Pherastar FS (BMG LABTECH, Ortenberg).
The adjustment was obtained by nonlinear regression using the Levenberg Marquardt algorithm.

[2] = system: U937 cells; assay: Cellular assay in U937 cells to measure activity of RIPK1-inhibitors on cell death (necroptosis); assay type: cell-based; conditions: overnight (18 to 24 hrs), 37° C., MTS readout
Excerpt: Upon TNF-Receptor I ligation, Ser/Thr kinase RIPK1 is recruited to a transient receptor complex I. Upon modification of RIPK1 which promotes activation of RIPK1, complex lib can form, that involves recruitment of RIPK3 and MLKL (mixed lineage-kinase domain-like protein) which then translocates from the cytosol to the plasma membrane to execute cell death (Cai, Z. et al, Nat. Cell Biol. (2014)16:55-65).
Cell death was quantified in 96 well plates by determination of the amount of live cell using a CellTiter 96 Aqueous reagent (Promega), a calorimetric method to measure the number of live cells by reducing tetrazolium compound [3-(4,5-dimethylthiazol-2-yl)-5-(3-carboxymethoxyphenyl)-2-(4-sulfophenyl)-2H-tetrazolium, inner salt; MTS] into formazan. Absorbance of formazan was read at 490 nm. The inhibitory activity of the test compound was quantified in a concentration response curve (CRC) experiment.
Compounds were obtained as 10 mM stock solutions and were diluted 1 to 10 volumes with DMSO to yield a 1 mM solution. From this solution 2 μl were diluted with 998 μl growth medium. 100 μl of 2 μM compound solution was further diluted sequentially with a dilution factor of 2.5 by adding 150 μl growth medium. A total of 10 concentrations were tested ranging from 10 μM to 0.26 nM or from 1 μM to 0.07 nM.
U937 cells were cultured in RPM11640 Glutamax and 10% heat inactivated FBS. 50 μl cell suspension containing 1×10^6 cells/ml supplemented with 50 μM zVAD.fmk (Benzyloxycarbonyl-Val-Ala-Asp (Ome) fluoromethylketone) and 100 ng/ml recombinant human TNFα were dispensed in each well of a 96-well plate. 50 μl of compound dilutions (described in Cellular assay in U937 cells) were added and the cell suspension incubated overnight (18 to 24 hrs) at 37° C., 5% CO2 in a humidified atmosphere (95% rH). High (no compound) and low control (no TNFα, zVAD.fmk) were tested with 7 replicates; all compound concentrations were tested in duplicates on each experimental plate.
CellTiter 96 Aqueous reagent was mixed (100 μl PMS (phenazine methosulfate) solution/2 ml MTS (3-(4,5-[…])-5-(3-carboxymethoxyphenyl)-2-(4-sulfophenyl)-2H-tetrazolium, inner salt) solution) and 20 μl were added per well. After 4 hrs incubation at 37° C. (5% CO2 95% rH) optical density was measured at 490 nm on a microplate reader (Tecan Infinite M1000).
The % inhibition is expressed as percentage of the maximal inhibition value obtained in the absence of TNFα/zVAD.fmc.

[3] = Homo sapiens, U-937, TNFα/zVAD.fmk induced cell death (necroptosis)

SMILES | IC50 [1] | IC50 [2, 3] | IC50 ([2]; TNFα/zVAD.fmk induced cell death (necroptosis))
C[C@]1(C(=O)N2OCC[C@H]2c2cc(F)cc(F)c2)C[C@@H](Nc2c(Cl)ncnc2C(N)=O)C1 [Compound 10, cis-6-chloro-5-((3-((S)-3-(3,5-difluorophenyl)isoxazolidine-2-carbonyl)-3-methylcyclobutyl)amino)pyrimidine-4-carboxamide] | 0.062 µM | 0.364 µM | –
C[C@]1(C(=O)N2OCC[C@H]2c2cc(F)cc(F)c2)C[C@@H](Nc2ncnc(C(N)=O)c2F)C1 [Compound 11, cis-6-((3-((S)-3-(3,5-difluorophenyl)isoxazolidine-2-carbonyl)-3-methylcyclobutyl)amino)-5-fluoropyrimidine-4-carboxamide] | 0.062 µM | 0.44 µM | –
NC(=O)c1ccnc(N[C@H]2CC[C@@H](C(=O)N3OCC[C@H]3c3ccc(Cl)cc3)CC2)n1 [Compound 12, cis-2-((4-((S)-3-(4-chlorophenyl)isoxazolidine-2-carbonyl)cyclohexyl)amino)pyrimidine-4-carboxamide] | 0.035 µM | 0.56 µM | –
NC(=O)c1cc(N[C@H]2CC[C@@H](C(=O)N3OCC[C@H]3c3ccc(Cl)cc3)CC2)ncn1 [Compound 13, cis-6-((4-((S)-3-(4-chlorophenyl)isoxazolidine-2-carbonyl)cyclohexyl)amino)pyrimidine-4-carboxamide] | 0.114 µM | 0.462 µM | –
N#Cc1ccnc(NC[C@H]2CC[C@H](C(=O)N3OCC[C@H]3c3ccc(Cl)cc3)CC2)n1 [Compound 14, trans-2-(((4-((S)-3-(4-chlorophenyl)isoxazolidine-2-carbonyl)cyclohexyl)methyl)amino)pyrimidine-4-carbonitrile] | 0.033 µM | 0.503 µM | –
N#Cc1cc(NC[C@H]2CC[C@H](C(=O)N3OCC[C@H]3c3ccc(Cl)cc3)CC2)ncn1 [Compound 15, trans-6-(((4-((S)-3-(4-chlorophenyl)isoxazolidine-2-carbonyl)cyclohexyl)methyl)amino)pyrimidine-4-carbonitrile] | 0.009 µM | 0.192 µM | –
N#Cc1ccnc(N[C@H]2C[C@@H](C(=O)N3OCC[C@H]3c3cccc(F)c3)C2)n1 [Compound 16, cis-2-((3-((S)-3-(3-fluorophenyl)isoxazolidine-2-carbonyl)cyclobutyl)amino)pyrimidine-4-carbonitrile] | 0.024 µM | 0.123 µM | –
N#Cc1cc(N[C@H]2C[C@@H](C(=O)N3OCC[C@H]3c3cccc(F)c3)C2)ncn1 [Compound 17, cis-6-((3-((S)-3-(3-fluorophenyl)isoxazolidine-2-carbonyl)cyclobutyl)amino)pyrimidine-4-carbonitrile] | 0.056 µM | 0.194 µM | –
N#Cc1cc(N[C@H]2C[C@@H](C(=O)N3OCC[C@H]3c3cc(F)cc(F)c3)C2)ncn1 [Compound 18, cis-6-((3-((S)-3-(3,5-difluorophenyl)isoxazolidine-2-carbonyl)cyclobutyl)amino)pyrimidine-4-carbonitrile] | 0.041 µM | 0.162 µM | –
N#Cc1cc(F)cc([C@@H]2CCON2C(=O)[C@H]2C[C@@H](Nc3nccc(C#N)n3)C2)c1 [Compound 19, cis-2-((3-((S)-3-(3-cyano-5-fluorophenyl)isoxazolidine-2-carbonyl)cyclobutyl)amino)pyrimidine-4-carbonitrile] | 0.066 µM | 0.757 µM | –
N#Cc1cc(F)cc([C@@H]2CCON2C(=O)[C@H]2C[C@@H](Nc3cc(C#N)ncn3)C2)c1 [Compound 20, cis-6-((3-((S)-3-(3-cyano-5-fluorophenyl)isoxazolidine-2-carbonyl)cyclobutyl)amino)pyrimidine-4-carbonitrile] | 0.069 µM | 0.809 µM | –
N#Cc1ccnc(N[C@H]2C[C@@H](C(=O)N3OCC[C@H]3c3ccc(F)c(F)c3)C2)n1 [Compound 21, cis-2-((3-((S)-3-(3,4-difluorophenyl)isoxazolidine-2-carbonyl)cyclobutyl)amino)pyrimidine-4-carbonitrile] | 0.029 µM | 0.212 µM | –
N#Cc1cc(N[C@H]2C[C@@H](C(=O)N3OCC[C@H]3c3ccc(F)c(F)c3)C2)ncn1 [Compound 22, cis-6-((3-((S)-3-(3,4-difluorophenyl)isoxazolidine-2-carbonyl)cyclobutyl)amino)pyrimidine-4-carbonitrile] | 0.04 µM | 0.313 µM | –
N#Cc1cc(N[C@H]2C[C@@H](C(=O)N3OCC[C@H]3c3ccc(Cl)cc3)C2)ncn1 [Compound 23, cis-6-((3-((S)-3-(4-chlorophenyl)isoxazolidine-2-carbonyl)cyclobutyl)amino)pyrimidine-4-carbonitrile] | 0.044 µM | 0.234 µM | –
N#Cc1ccnc(N[C@H]2C[C@@H](C(=O)N3OCC[C@H]3c3ccc(Cl)cc3)C2)n1 [Compound 24, cis-2-((3-((S)-3-(4-chlorophenyl)isoxazolidine-2-carbonyl)cyclobutyl)amino)pyrimidine-4-carbonitrile] | 0.013 µM | – | 0.264 µM
N#Cc1cc(F)cc(N[C@H]2C[C@@H](C(=O)N3OCC[C@H]3c3ccc(Cl)cc3)C2)c1 [Compound 25, cis-3-((3-((S)-3-(4-chlorophenyl)isoxazolidine-2-carbonyl)cyclobutyl)amino)-5-fluorobenzonitrile] | 0.064 µM | 0.42 µM | –
N#Cc1cc(F)cc(N[C@H]2C[C@@H](C(=O)N3OCC[C@H]3c3cccc(F)c3)C2)c1 [Compound 26, cis-3-fluoro-5-((3-((S)-3-(3-fluorophenyl)isoxazolidine-2-carbonyl)cyclobutyl)amino)benzonitrile] | 0.052 µM | 0.152 µM | –
N#Cc1cc(F)cc(N[C@H]2C[C@@H](C(=O)N3OCC[C@H]3c3ccc(F)c(F)c3)C2)c1 [Compound 27, cis-3-((3-((S)-3-(3,4-difluorophenyl)isoxazolidine-2-carbonyl)cyclobutyl)amino)-5-fluorobenzonitrile] | 0.049 µM | 0.17 µM | –
N#Cc1cc(F)cc([C@@H]2CCON2C(=O)[C@H]2CC[C@H](CNc3cc(C(N)=O)ncn3)CC2)c1 [Compound 29, trans-6-(((4-((S)-3-(3-cyano-5-fluorophenyl)isoxazolidine-2-carbonyl)cyclohexyl)methyl)amino)pyrimidine-4-carboxamide] | 0.086 µM | 0.561 µM | –
N#Cc1cc(F)cc([C@@H]2CCON2C(=O)[C@H]2CC[C@H](CNc3cc(C#N)ncn3)CC2)c1 [Compound 30, trans-6-(((4-((S)-3-(3-cyano-5-fluorophenyl)isoxazolidine-2-carbonyl)cyclohexyl)methyl)amino)pyrimidine-4-carbonitrile] | 0.059 µM | 0.264 µM | –
Cn1ccc2c(NC[C@H]3CC[C@H](C(=O)N4OCC[C@H]4c4cc(F)cc(C#N)c4)CC3)ncnc21 [Compound 31, trans-3-fluoro-5-((S)-2-(4-(((7-methyl-7H-pyrrolo[2,3-d]pyrimidin-4-yl)amino)methyl)cyclohexane-1-carbonyl)isoxazolidin-3-yl)benzonitrile] | 0.11 µM | 0.373 µM | –
